Test results published in patent publication US20130190327A1, “BIS-FATTY ACID CONJUGATES AND THEIR USES” (CATABASIS PHARMACEUTICALS INC, priority 2010, published 2013).

Key:
NF-κB = NF-κB luciferase reporter assay in RAW 264.7 macrophages; assay type: cell-based; conditions: Mus musculus, RAW264.7; RAW 264.7 reporter cells, 2 hour pretreatment, 200 ng/ml LPS for 3 hours; read-out: NF-kB inhibitory activity IC50
Procedure: RAW 264.7 cells stably expressing a 3× NFkB response elemement-drive luciferase reporter were seeded into 96 well plates in sera-free medium (Optimem) 18 hours prior to compound application. Compounds of the invention were prepared by first making 100 mM stock solutions in EtOH. Stock solutions were then diluted 1:100 in low LPS FBS (Gemini BenchMark 100-106), mixed vigorously and allowed to incubate at room temperature for 30 minutes. 1:2 serial dilutions were then made in FBS supplemented with 1% EtOH, mixed vigorously, and again allowed to incubate at room temperature for 30 minutes before adding to RAW 264.7 reporter cells (final concentrations: 10% FBS, 100 uM highest compound dilution, 0.1% EtOH) for a 2 hour pretreatment prior to stimulation with LPS. Cells were then stimulated with 200 ng/ml LPS or vehicle control for 3 hours in the presence of the compounds of the invention. A set of six vehicles was left unstimulated with LPS in order to measure the assay floor. AlamarBlue viability dye (Invitrogen) was added to cells simultaneously with the delivery of LPS (final AlamarBlue concentration of 10%).
After the 3 h incubation period with LPS, cell viability was measured by reading fluorescence (excitation 550 nm, emission 595 nm) with a Perkin Elmer Victor V plate reader. Then cell media was aspirated from each well. Luciferase signal was then developed by addition of the Britelite Plus reagent (Perkin Elmer). Luciferase activity was measured with the Perkin Elmer Victor V plate reader. NF-κB activity was expressed as a percent of the vehicle control wells (stimulated with LPS). Compounds were tested at 6 dose point titrations in triplicate to determine IC50 values. Table 1 summarizes the […] values for a number of bis-fatty acid conjugates in this NF-κB luciferase reporter assay.

[1] = tested on: ApoB secretion in HepG2 cells; assay: ApoB secretion in HepG2 cells (ELISA); assay type: cell-based; conditions: Homo sapiens, incubated for 16 hours, FIG. 1, read-out: IC50 (concentration at which 50% of ApoB secretion is inhibited)
Procedure: HepG2 cells (ATCC) are seeded at 25,000 cells per well in collagen-coated 96-well plates in growth media (DMEM with 10% fetal bovine serum). The following day, bis-fatty acid conjugates are complexed to lipoprotein-deficient fetal bovine serum at the appropriate concentration. Growth media is then removed from and the HepG2 cells are washed once with PBS. The lipoprotein-deficient FBS with the complexed bis-fatty acid conjugates is added to DMEM for a final 10% concentration. Each concentration of bis-fatty acid is tested in triplicate. Cells are incubated for 16 hours with the bis-fatty acid. Alamar Blue® (Invitrogen) is then added to the media to determine cell viability per the manufacturer's instructions. Two hours after Alamar Blue® addition, the media is removed and placed in a black 96-well plate. The plate is then read at 550 nm/590 nm to determine cell viability. The media is then used to determine ApoB concentrations using ELISA kits (Mabtech AB). Percent inhibition of ApoB secretion is determined by normalizing data to vehicle treated wells. For a given compound, an IC50 (concentration at which 50% of ApoB secretion is inhibited) can also be determined by using a 4 parameter-fit inhibition curve model (Graph Pad Prism®).

## CC/C=C\C/C=C\C/C=C\C/C=C\C/C=C\C/C=C\CCC(=O)O [DHA, docosahexaenoic acid, reference compound]
NF-κB
  IC50: > 200 µM

## CC/C=C\C/C=C\C/C=C\C/C=C\C/C=C\CCCC(=O)O [EPA, eicosapentaenoic acid, reference compound]
NF-κB
  IC50: > 200 µM

## CC/C=C\C/C=C\C/C=C\C/C=C\C/C=C\C/C=C\CCC(=O)NCCNC(=O)CC/C=C\C/C=C\C/C=C\C/C=C\C/C=C\C/C=C\CC [I-1, (4Z,7Z,10Z,13Z,16Z,19Z)-docosa-4,7,10,13,16,19-hexaenoic acid [2-((4Z,7Z,10Z,13Z,16Z,19Z)-docosa-4,7,10,13,16,19-hexaenoylamino)-ethyl]-amide]
NF-κB
  IC50: < 200 µM

## CC/C=C\C/C=C\C/C=C\C/C=C\C/C=C\C/C=C\CCC(=O)NCCN(C)CCNC(=O)CC/C=C\C/C=C\C/C=C\C/C=C\C/C=C\C/C=C\CC [I-2, (4Z,7Z,10Z,13Z,16Z,19Z)-docosa-4,7,10,13,16,19-hexaenoic acid (2-{[2-((4Z,7Z,10Z,13Z,16Z,19Z)-docosa-4,7,10,13,16,19-hexaenoylamino)-ethyl]-methyl-amino}-ethyl)-amide]
NF-κB
  IC50: < 50 µM

## CC/C=C\C/C=C\C/C=C\C/C=C\C/C=C\C/C=C\CCC(=O)NCCNC(=O)CCC/C=C\C/C=C\C/C=C\C/C=C\C/C=C\CC [I-37, (4Z,7Z,10Z,13Z,16Z,19Z)-docosa-4,7,10,13,16,19-hexaenoic acid [2-((5Z,8Z,11Z,14Z,17Z)-icosa-5,8,11,14,17-pentaenoylamino)-ethyl]-amide]
NF-κB
  IC50: < 200 µM

## CC/C=C\C/C=C\C/C=C\C/C=C\C/C=C\C/C=C\CCC(=O)NCCN(C)CCNC(=O)CCC/C=C\C/C=C\C/C=C\C/C=C\C/C=C\CC [I-39, (4Z,7Z,10Z,13Z,16Z,19Z)-docosa-4,7,10,13,16,19-hexaenoic acid (2-{[2((5Z,8Z,11Z,14Z,17Z)-icosa-5,8,11,14,17-pentaenoylamino)-ethyl]-methyl-amino}-ethyl)-amide]
NF-κB
  IC50: < 50 µM

## CC/C=C\C/C=C\C/C=C\C/C=C\C/C=C\C/C=C\CCC(=O)N[C@@H](CCCCNC(=O)CCC/C=C\C/C=C\C/C=C\C/C=C\C/C=C\CC)C(=O)O [I-45, (S)-2-((4Z,7Z,10Z,13Z,16Z,19Z)-docosa-4,7,10,13,16,19-hexaenoylamino)-6-((5Z,8Z,11Z,14Z,17Z)-icosa-5,8,11,14,17-pentaenoylamino)-hexanoic acid]
NF-κB
  IC50: < 50 µM

## CC/C=C\C/C=C\C/C=C\C/C=C\C/C=C\C/C=C\CCC(=O)N[C@H](C(=O)OC)[C@@H](C)OC(=O)[C@H](C)NC(=O)CCC/C=C\C/C=C\C/C=C\C/C=C\C/C=C\CC [I-65, (2S,3R)-methyl 2-((4Z,7Z,10Z,13Z,16Z,19Z)-docosa-4,7,10,13,16,19-hexaenamido)-3-((S)-2-((5Z,8Z,11Z,14Z,17Z)-icosa-5,8,11,14,17-pentaenamido)propanoyloxy)butanoate]
NF-κB
  IC50: < 50 µM

## CC/C=C\C/C=C\C/C=C\C/C=C\C/C=C\C/C=C\CCC(=O)N[C@@H](C)C(=O)O[C@H](C)[C@H](NC(=O)CCC/C=C\C/C=C\C/C=C\C/C=C\C/C=C\CC)C(=O)OC [I-66, (2S,3R)-methyl 3-((S)-2-((4Z,7Z,10Z,13Z,16Z,19Z)-docosa-4,7,10,13,16,19-hexaenamido)propanoyloxy)-2-((5Z,8Z,11Z,14Z,17Z)-icosa-5,8,11,14,17-pentaenamido)butanoate]
[1]
  IC50: 9.5 µM
NF-κB
  IC50: < 50 µM

## CC/C=C\C/C=C\C/C=C\C/C=C\C/C=C\C/C=C\CCC(=O)N1CCN(C(=O)CCC/C=C\C/C=C\C/C=C\C/C=C\C/C=C\CC)CC1 [I-67, (4Z,7Z,10Z,13Z,16Z,19Z)-1-[4-((5Z,8Z,11Z,14Z,17Z)-icosa-5,8,11,14,17-pentaenoyl)-piperazin-1-yl]-docosa-4,7,10,13,16,19-hexaen-1-one]
NF-κB
  IC50: < 200 µM

## CC/C=C\C/C=C\C/C=C\C/C=C\C/C=C\CCCC(=O)N[C@@H](CCCCNC(=O)CCCC[C@@H]1CCSS1)C(=O)O [I-107, (S)-6-((R)-5-[1,2]dithiolan-3-yl-pentanoylamino)-2-((5Z,8Z,11Z,14Z,17Z)-icosa-5,8,11,14,17-pentaenoylamino)-hexanoic acid]
NF-κB
  IC50: < 200 µM
